Experimental data taken from publication PMC6006164, “Natural cyclopeptide RA-V inhibits the NF-κB signaling pathway by targeting TAK1” (Cell Death & Disease, 2018).

What was measured:
[1] = system: LPS-induced endotoxin shock; test: Mouse endotoxin shock model; type: in vivo, mice
Protocol: The above results prompted us to explore the in vivo effect of RA-V on the NF-κB signaling pathway. We extended our study to the mouse endotoxin shock model, in which mice were intraperitoneally injected with LPS (10 mg/kg or 20 mg/kg) and evaluated for changes by examining physiological parameters induced by the inflammatory response.
First, the mice were intravenously injected with RA-V micelles (0.25 mg/kg body weight) or control micelles at three time points: 52, 28, and 4 h before they were intraperitoneally injected with phosphate-buffered saline (PBS) or LPS (10 mg/kg). One hour after LPS injection, we examined proinflammatory cytokines (IL-6 and TNF-α) production at the transcriptional and translational levels. […] As expected, after receiving the LPS injection, all of the control mice died within 36 h, whereas 60% of the RA-V-treated mice survived (Fig. 2d). To further confirm the in vivo effect of RA-V on the NF-κB pathway, we performed the endotoxin shock model on NF-κB-luciferase transgenic mice.
Fig. 2 RA-V prevents endotoxic shock and inhibits NF-κB activation in vivo. a–c RA-V prevents endotoxic shock in vivo. Mice (n = 6 per group) were intravenously injected with RA-V micelles (0.25 mg/kg body weight) or control micelles 52, 28, and 4 h before an intraperitoneal injection of LPS (10 mg/kg). One hour later, the relative levels of IL-6 and TNF-α mRNAs in the liver were assessed by quantitative RT-PCR (a), the serum IL-6 and TNF-α levels were quantified by ELISA (b), and the expression of p65 and IκBα phosphorylation in the liver were measured by immunoblot analysis c. d RA-V improved animal survival. Mice (n = 20 per group) were intravenously injected with RA-V micelles (0.25 mg/kg body weight) or control micelles 52, 28, and 4 h before intraperitoneal injection of LPS (20 mg/kg). Animal survival was recorded in 2–3 hours intervals. e RA-V inhibits NF-κB activation in vivo. The NF-κB-luc transgenic mice (n = 4 per group) were intravenously injected with RA-V micelles (0.25 mg/kg body weight) or control micelles 52, 28, and 4 h before intraperitoneal injection with LPS (10 mg/kg). NF-κB-luc transgenic mice were photographed at different time points and representative images are shown. The bioluminescent signals from all of the mice were detected and quantified. The data are presented as the means ± S.D. *, p < 0.05; **, p < 0.01

NF-κB signaling pathway = test: NF-κB-dependent luciferase reporter (5×κB-luciferase/pTK-Renilla), TNF-α-induced, HeLa cells; type: cell-based; details: RA-V 6 h, then 10 ng/mL TNF-α 2 h, three independent experiments
Protocol: Fig. 1 RA-V inhibits TNF-α- and LPS-induced activation of NF-κB. a Chemical structure of RA-V. b RA-V inhibited the NF-κB signaling pathway in a dose-dependent manner. HEK293T or HeLa cells were transfected with the 5 × κB-luciferase and pTK-Renilla reporters. Twenty-four hours after transfection, the cells were incubated with various concentrations of RA-V for 6 h, and then treated with 10 ng/mL TNF-α for 2 h before the luciferase activity assay and MTT assay. c RA-V reduced TNF-α-induced expression of NF-κB target genes. HEK293T or HeLa cells were treated with various concentrations of RA-V for 24 h and stimulated with 10 ng/mL TNF-α for 2 h. The expression of the NF-κB target genes, IL-8, MCP-1, and E-selectin was measured by quantitative RT-PCR and normalized to GADPH expression. d RA-V inhibited TNF-α-induced p65 phosphorylation, IκBα phosphorylation and IκBα degradation. HEK293T or HeLa cells were incubated with various concentrations of RA-V for 24 h and treated with 10 ng/mL TNF-α for 10 min. The cell lysates were prepared and subjected to western blot analysis with the indicated antibodies. e RA-V inhibited TNF-α-induced IL-8 production. […] The expression of IL-6 was measured. h RA-V inhibited LPS-induced p65 phosphorylation, IκBα phosphorylation. […] The protein expression was measured. i RA-V inhibited LPS-induced IL-6 production. […] The expression of IL-6 was measured. […]

[2] = system: p65 nuclear translocation; test: Immunofluorescence assay of p65 nuclear translocation; type: cell-based; details: HeLa; 200 nM RA-V 6 h, 10 ng/mL TNF-α 15 min
[3] = RA-V micelles 0.25 mg/kg i.v. 52, 28, 4 h before LPS 10 mg/kg i.p., 1 h after LPS, n = 6

RA-V
IL-6 and TNF-α in the serum (ELISA) [1, 3]: reduced expression | expression of IL-6 and TNF-α mRNAs in liver tissue [1, 3]: significantly decreased | phosphorylation of IκBα and p65 in liver tissue ([1]; RA-V micelles 0.25 mg/kg i.v. 52, 28, 4 h before LPS 10 mg/kg i.p., immunoblot): clearly inhibited | survival of mice after lethal dose of LPS ([1]; RA-V micelles 0.25 mg/kg i.v. 52, 28, 4 h before LPS 20 mg/kg i.p., n = 20, all control mice died within 36 h): 60% | IC50 (NF-κB signaling pathway): 171 nM | TNF-α-induced p65 nuclear translocation [2]: significantly blocked
